The text below walks through data of PMC8842277, “Highly Antiproliferative Latonduine and Indolo[2,3-c]quinoline Derivatives: Complex Formation with Copper(II) Markedly Changes the Kinase Inhibitory Profile” (Journal of Medicinal Chemistry, 2022).

A short description of series [1]: Thermodynamic solubility, UV–vis of saturated solutions. The settings on record: water, 298 K. Here is the method:
The concentration of the compounds was determined by UV–vis spectrophotometry using stock solutions of the compounds with a known concentration dissolved in pure DMSO and 50% (v/v) DMSO/buffered aqueous solution for the calibration.

Series [2] has as its system Colo320 cells. Kind of series: Apoptosis assay, Annexin-V-FITC/PI flow cytometry. The settings on record: 3 h induction. Here is the method:
An apoptosis assay was performed by flow cytometry via the analysis of multidrug-resistant Colo320 cells stained with Annexin-V-FITC and propidium iodide (PI).
Colo320 cells were treated at the indicated concentration of the compounds. The dual parametric dot plots combining Annexin-V (FL1) and PI (FL3) fluorescence show the viable cell population in the lower left quadrant Annexin-V–/PI– (Q4), the early apoptotic cells in the lower right quadrant Annexin-V+/PI– (Q3), and the late apoptotic and necrotic cells in the upper right quadrant Annexin-V+/PI+ (Q2).
The assay was carried out for selected compounds using an Annexin V-FITC Apoptosis Detection Kit (cat. no. APOAF-50TST) from Sigma according to the manufacturer’s instructions. The concentration of the Colo320 cell suspension was adjusted to approximately 0.5 × 10^6 cells/mL in an RPMI 1640 medium, and the cell suspension was distributed in 1 mL of aliquots into a 24-well plate and then incubated overnight at 37 °C and 5% CO2. On the following day, the medium was removed and replaced by 1 mL of RPMI medium containing the compounds except the control samples. […] After the incubation period, the samples were washed with PBS and fresh RPMI 1640 medium was added to the samples. The cells were incubated overnight at 37 °C and 5% CO2. The next day, 200 μL of 0.25% Trypsin (Trypsin-Versen) was added to the samples until cells appeared detached followed by the addition of 400 μL of RPMI 1640 medium supplemented with 10% bovine serum. The cells were collected in Eppendorf tubes and centrifuged at 2000g for 2 min. The harvested cells were resuspended in fresh serum-free RPMI 1640 culture medium. After this step, the apoptosis assay was carried out according to the instructions of the manufacturer. The fluorescence was analyzed immediately using a ParTec CyFlow flow cytometer (Partec GmbH, Münster, Germany).
• Apoptosis and DNA binding studies […]
(In general: Flow cytometry measures light scatter and fluorescence of single cells or particles in a stream.)

For `Brc1ccc2[nH]c3c(NN=Cc4ccccn4)nc4ccccc4c3c2c1.[Cl][Cu][Cl]` [6nm], the “Thermodynamic solubility (S)” value in series [1] (pH 5, 20 mM MES buffer) was found to be 8.9 µM; in series [1] (pH 7.4, 20 mM HEPES) it was 3.1 µM.
Consider `c1ccc2c(c1)Nc1c(ccc3ccccc13)S2` [M627, 12H-benzo[α]phenothiazine, reference compound], for which, in series [2] (10 µM), the “Cell death % Q1” value is listed as 4.59%; the “Early apoptosis % Q3” value was found to be 12.4%; the “Late apoptosis and necrosis % Q2” value turned out to be 31.5%. Moreover, in series [2] (20 µM), the “Cell death % Q1” value turned out to be 7.85%; the “Early apoptosis % Q3” value stood at 11.1%; the “Late apoptosis and necrosis % Q2” value is 26.1%.
Take `C(=NN=c1[nH]c2ccccc2c2c1[nH]c1ccccc12)c1ccccn1` [HL^5nm]: the “Thermodynamic solubility (S)” value in series [1] (pH 5, 20 mM MES buffer) stood at 1.1 µM; in series [1] (pH 7.4, 20 mM HEPES) it was 0.3 µM.
For `C(=NNc1nc2ccccc2c2c1[nH]c1ccccc12)c1ccccn1.[Cl][Cu][Cl]` [5nm], in that order: 134 µM and 5.7 µM.
